Measurements: PubChem BioAssay AID1996
≈ marks a conversion by molar mass, not a printed value.

conditions: buffer; pH 7.4; 200.0 µM

| SMILES | solubility kinetic [µg/mL] |
| --- | --- |
| FC(F)(F)c1ccccc1CN1CCC(Cc2ccccc2)CC1 | < 0.7 |
| CCOc1ccc(CNC(c2ccccc2)c2ccccc2)cc1.Cl | < 0.8 |
| COc1ccc(S(=O)(=O)N2CCN(CC(=O)NC(Cc3ccccc3)C(C)=O)CC2)cc1 (centres undefined) | > 68.9 |
| CCn1c(Oc2ccccc2F)nc2c1c(=O)n(C)c(=O)n2C | > 47.7 |
| COC(=O)c1cc(S(=O)(=O)N2CCC(C)CC2)cn1C | 41.9 (≈ 139 µM) |
| COC(=O)c1ccc(/C=C/C(=O)OCC(=O)Nc2sccc2C(N)=O)cc1 | 3.9 (≈ 10 µM) |
| CCN1CCN(c2ccc(NC(=O)c3cccc(S(=O)(=O)N4CCCC4)c3)cc2)CC1 | 63.2 (≈ 143 µM) |
| O=C(COC(=O)c1ccc(O)cc1)Nc1ccccc1 | > 40.7 |
| Nc1ccc(CCC(=O)N2CCCC2)cc1 | > 32.7 |
| Cl.c1csc(CNCc2ccncc2)c1 | > 36.1 |
| CCC1Sc2ccccc2N(CC(=O)NC2CCCCC2)C1=O (centres undefined) | > 49.9 |
| Cc1c(CCOC(=O)c2ccc(Cl)cc2Cl)sc[n+]1CC(=O)c1ccccc1.[Br-] | > 77.3 |
| O=C(Nc1ccccc1Cl)c1ccc([N+](=O)[O-])o1 | 39.4 (≈ 148 µM) |
| CC(C)N1CN(c2ccccc2)C(=S)N(c2ccccc2)C1 | > 46.7 |
| CC(=O)c1ccc(OCCOc2ccc(Cl)c3cccnc23)cc1 | < 0.7 |
| O=C1NC(=O)/C(=C\c2ccc(OCc3ccccc3)cc2)S1 | < 0.7 |
| CN(C)C(CNc1ccc(C(F)(F)F)cn1)c1ccccc1 (centres undefined) | > 46.4 |
| CN(C(=O)c1coc(=O)c2ccccc12)c1ccccc1Cl | 44.2 (≈ 141 µM) |
| O=C(Nc1ccccc1C(=O)Nc1cccnc1)c1ccccc1 | 6.3 (≈ 19.9 µM) |
| Cc1ccc(NC(=O)Cn2nc(C)c(S(=O)(=O)N(C)C)c2C)cc1 | > 52.6 |

| SMILES | solubility kinetic [µg/mL] |
| --- | --- |
| CCOC(=O)c1c(O)c2ccccc2n(CC)c1=O | > 39.2 |
| CCN1CCC(NCCc2ccc(F)cc2)CC1 | 24.9 (≈ 99.5 µM) |
| N#CC(c1cccnc1)N1CCOCC1 (centres undefined) | > 30.5 |
| Cc1ccc(SCc2ccc(C(=O)Nc3nccs3)o2)cc1 | 2.2 (≈ 6.66 µM) |
| CCCc1cc(=O)[nH]c(SCC(=O)Nc2ccc(OC)c(S(=O)(=O)N3CCCCC3)c2)n1 | 13.8 (≈ 28.7 µM) |
| COc1ccc(C2=NCCNC(C(F)(F)F)=C2)cc1 | > 40.5 |
| CCOc1ccc(N2C=Nc3ccc(OCC)cc3C2)cc1 | 11.6 (≈ 39.1 µM) |
| CC(NC(=O)CN1C(=O)c2ccccc2C1=O)c1ccccc1 (centres undefined) | 8.4 (≈ 27.2 µM) |
| CCn1c(C(=O)NC2CCC(C)CC2)cc2sccc21 (centres undefined) | 0.7 (≈ 2.41 µM) |
| Cc1sc2c(c1C)C(=O)/C(=C\Nc1ccccn1)S(=O)(=O)N2C | < 0.2 |
| O=C(Nc1ccc(F)cc1F)c1cc2ccccc2oc1=O | < 0.6 |
| S=C(NCCc1ccccc1)Nc1ccccc1 | 31.5 (≈ 123 µM) |
| Cc1cccc(OCC(=O)Nc2ccncc2)c1 | > 36.3 |
| COc1ccccc1N1CCN(C2CCC(C)CC2)CC1 (centres undefined) | 31.7 (≈ 110 µM) |
| O=[N+]([O-])c1ccc(N2CCCC2)nc1 | 26.8 (≈ 139 µM) |
| O=C(O)/C=C/c1cccc(NC(=O)Nc2ccc([N+](=O)[O-])cc2)c1 | > 49.1 |
| CC(c1ccccc1)n1c(CCCO)nc2ccccc21 (centres undefined) | > 42.1 |
| O=C(C1CC(=O)N(c2ccc(F)cc2)C1)N1CCCCCC1 (centres undefined) | > 45.7 |
| Cc1ccc2nc(Nc3ccccc3)c(C=O)c(=O)n2c1 | 1.5 (≈ 5.37 µM) |
| COc1ccc(C2=NOC(C(=O)Nc3cc(C)on3)C2)cc1OC (centres undefined) | > 49.7 |

| SMILES | solubility kinetic [µg/mL] |
| --- | --- |
| NS(=O)(=O)c1ccc(NC(=O)C2C3C=CC(C3)C2C(=O)O)cc1 (centres undefined) | > 50.5 |
| CN(c1ccccc1)c1nc(N)c([N+](=O)[O-])c(N2CCOCC2)n1 | 47.6 (≈ 144 µM) |
| CN1C(=O)C(=Cc2cn(CC#N)c3ccccc23)C(=O)N(C)C1=O | 8.1 (≈ 25.1 µM) |
| CN1CCN(c2c(/C=N/O)c3ccccc3n2C)CC1 | > 40.9 |
| Cc1ccc(SCC(=O)c2c(C)nc3ccccn23)cc1 | 2.6 (≈ 8.77 µM) |
| O=C(CCc1ccccc1)N/N=C/c1cccc(O)c1 | > 40.2 |
| COc1ccccc1CNC(=O)COC(=O)/C=C/c1ccc2ccccc2n1 | 9.8 (≈ 26 µM) |
| Cc1c(C(=O)c2ccc(F)cc2F)c2ccccn2c1CCC#N | 44.4 (≈ 137 µM) |
| N/C(=N\OC(=O)c1cccs1)c1ccc(Cl)cc1 | 3.5 (≈ 12.5 µM) |
| CCCCOC(=O)C1=C(C)NC(=O)NC1c1cccc([N+](=O)[O-])c1 (centres undefined) | 12.3 (≈ 36.9 µM) |
| O=C(c1ccncc1)N1CCN(S(=O)(=O)c2ccc(F)cc2)CC1 | > 52.4 |
| COc1ccccc1C1CCN(C(=O)c2ccco2)CC1 | 34 (≈ 119 µM) |
| CSc1ccccc1C(=O)Nc1c(C)cccc1C | 22.9 (≈ 84.4 µM) |
| O=C(CN1CCN(Cc2ccccc2Cl)C1=O)NCc1ccccn1 | > 53.8 |
| CC(=O)Nc1ccc(NC(=S)NC(=O)C2CCCC2)cc1 | > 45.8 |
| COc1ccc(COC(=O)CN2C(=O)NC3(CC(C)CC(C)(C)C3)C2=O)cc1F (centres undefined) | 5.1 (≈ 12.5 µM) |
| CC(C)CNC(=O)COC(=O)c1c2c(nc3ccccc13)CCC2 | > 49 |
| C=CCn1c(SCC(=O)C23CC4CC(CC(C4)C2)C3)nc(O)cc1=O | > 54.1 |
| COc1ccc(/C=C/C(=O)NC(=S)N2CCOCC2)cc1 | > 46 |
